Molecular target: hMC2 receptor (Homo sapiens, UniProt Q01718)
Experiment: hMC2 membrane binding assay ([125I]ACTH (1-39) Tyr23, SPA)
Parameters: scale not given here
Conditions: crude hMC2R membranes from CRE-bla-CHO-K1 cells expressing hMC2 receptor and hMRAP; [125I]ACTH (1-39) Tyr23 0.2 nM; 1.5 hours at room temperature; read-out: MC2R binding potency
How it was run: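 CRE-bla-CHO-K1 membranes co-expressing hMC2 receptor and hMRAP, preincubated with WGA PVT SPA beads in pH 7.4 HEPES/MgCl2/CaCl2/0.2% BSA buffer. Compounds (typically 0–10,000 nM final) compete with 0.2 nM [125I]ACTH(1-39) Tyr23 for 1.5 h at room temperature. SPA counts give Ki by non-linear regression.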

Chain of hMC2 receptor (Q01718 whole entry): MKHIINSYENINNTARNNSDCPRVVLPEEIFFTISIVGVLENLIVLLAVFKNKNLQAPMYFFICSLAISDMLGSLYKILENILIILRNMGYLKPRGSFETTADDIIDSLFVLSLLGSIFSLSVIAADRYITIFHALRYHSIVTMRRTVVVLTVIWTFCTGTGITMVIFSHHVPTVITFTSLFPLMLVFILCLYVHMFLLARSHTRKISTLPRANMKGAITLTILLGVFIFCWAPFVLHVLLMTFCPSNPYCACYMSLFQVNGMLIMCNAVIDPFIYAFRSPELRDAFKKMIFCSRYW
Chain of hMC2 receptor (Q8TCY5 whole entry partner): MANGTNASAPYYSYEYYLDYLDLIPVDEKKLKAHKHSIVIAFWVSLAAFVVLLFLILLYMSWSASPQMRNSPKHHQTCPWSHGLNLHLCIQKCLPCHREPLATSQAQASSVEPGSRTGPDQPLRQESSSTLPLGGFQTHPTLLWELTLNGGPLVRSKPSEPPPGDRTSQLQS

SMILES | Ki
CCOc1ncccc1-c1ccc(N2CCN(C(=O)C3(C(F)(F)F)CCCC3)C[C@H]2CC)c(C(=O)NCC2CN(C)C2)n1 [Compound 1-313, 2′-ethoxy-5-[(2R)-2-ethyl-4-[1-(trifluoromethyl)cyclopentanecarbonyl]piperazin-1-yl]-N-[(1-methylazetidin-3-yl)methyl]-[2,3′-bipyridine]-6-carboxamide] | < 0.01 µM
CCOc1ncccc1-c1ccc(N2CCN(C(=O)C34CCC(CC3)C4(C)C)C[C@H]2CC)c(C(=O)N[C@@H]2CCNC2)n1 [Compound 1-314, 5-[(2R)-4-{7,7-dimethylbicyclo[2.2.1]heptane-1-carbonyl}-2-ethylpiperazin-1-yl]-2′-ethoxy-N-[(3R)-pyrrolidin-3-yl]-[2,3′-bipyridine]-6-carboxamide] | < 0.01 µM
CC[C@@H]1CN(C(=O)N2CCC[C@H]2C(C)(C)C)CCN1c1ccc(-c2ccccc2OC)nc1C(=O)N[C@@H]1CCNC1 [Compound 1-315, 3-[(2R)-4-[(2S)-2-tert-butylpyrrolidine-1-carbonyl]-2-ethylpiperazin-1-yl]-6-(2-methoxyphenyl)-N-[(3R)-pyrrolidin-3-yl]pyridine-2-carboxamide] | < 0.01 µM
CCOc1ncccc1-c1ccc(N2CCN(C(=O)N3CCC[C@H]3C(C)(C)F)C[C@H]2CC)c(C(=O)N[C@@H]2CCNC2)n1 [Compound 1-320, 2′-ethoxy-5-[(2R)-2-ethyl-4-[(2S)-2-(2-fluoropropan-2-yl)pyrrolidine-1-carbonyl]piperazin-1-yl]-N-[(3R)-pyrrolidin-3-yl]-[2,3′-bipyridine]-6-carboxamide] | < 0.01 µM
CCOc1ncccc1-c1ccc(N2CCN(C(=O)C3(C(F)(F)F)CCCC3)C[C@H]2CC)c(C(=O)N[C@H]2CCNC2)n1 [Compound 1-321, 2′-ethoxy-5-[(2R)-2-ethyl-4-[1-(trifluoromethyl)cyclopentanecarbonyl]piperazin-1-yl]-N-[(3S)-pyrrolidin-3-yl]-[2,3′-bipyridine]-6-carboxamide] | < 0.01 µM
CCOc1ncccc1-c1ccc(N2CCN(C(=O)C3(C(F)(F)F)CCCC3)C[C@H]2CC)c(C(=O)NC[C@H]2CCCN2)n1 [Compound 1-324, 2′-ethoxy-5-[(2R)-2-ethyl-4-[1-(trifluoromethyl)cyclopentanecarbonyl]piperazin-1-yl]-N-{[(2R)-pyrrolidin-2-yl]methyl}-[2,3′-bipyridine]-6-carboxamide] | < 0.01 µM
CCOc1ncccc1-c1ccc(N2CCN(C(=O)C3(C(F)(F)F)CCCC3)C[C@H]2CC)c(C(=O)NC[C@@H]2CCCN2)n1 [Compound 1-325, 2′-ethoxy-5-[(2R)-2-ethyl-4-[1-(trifluoromethyl)cyclopentanecarbonyl]piperazin-1-yl]-N-{[(2S)-pyrrolidin-2-yl]methyl}-[2,3′-bipyridine]-6-carboxamide] | < 0.01 µM
CCOc1ncccc1-c1ccc(N2CCN(C(=O)N3CCCC3(C)C(F)(F)F)C[C@H]2CC)c(C(=O)N[C@@H]2CCNC2)n1 (stereo partly drawn) [Compound 1-326, 2′-ethoxy-5-[(2R)-2-ethyl-4-[2-methyl-2-(trifluoromethyl)pyrrolidine-1-carbonyl]piperazin-1-yl]-N-[(3R)-pyrrolidin-3-yl]-[2,3′-bipyridine]-6-carboxamide] | < 0.01 µM
CCOc1ncccc1-c1ccc(N2CCN(C(=O)C3(C(F)(F)F)CCCC3)C[C@H]2CC)c(C(=O)NC[C@H]2CCN2)n1 [Compound 1-327, N-{[(2R)-azetidin-2-yl]methyl}-2′-ethoxy-5-[(2R)-2-ethyl-4-[1-(trifluoromethyl)cyclopentanecarbonyl]piperazin-1-yl]-[2,3′-bipyridine]-6-carboxamide] | < 0.01 µM
CCOc1ncccc1-c1ccc(N2CCN(C(=O)C3(CC(F)F)CCC3)C[C@H]2CC)c(C(=O)N[C@@H]2CCNC2)n1 [Compound 1-328, 5-[(2R)-4-[1-(2,2-difluoroethyl)cyclobutanecarbonyl]-2-ethylpiperazin-1-yl]-2′-ethoxy-N-[(3R)-pyrrolidin-3-yl]-[2,3′-bipyridine]-6-carboxamide] | < 0.01 µM
CCOc1ncccc1-c1ccc(N2CCN(C(=O)C3(C(F)(F)F)CCCC3)C[C@H]2CC)c(C(=O)NC[C@@H]2CCN2)n1 [Compound 1-329, N-{[(2S)-azetidin-2-yl]methyl}-2′-ethoxy-5-[(2R)-2-ethyl-4-[1-(trifluoromethyl)cyclopentanecarbonyl]piperazin-1-yl]-[2,3′-bipyridine]-6-carboxamide] | < 0.01 µM
CCOc1ncccc1-c1ccc(N2CCN(C(=O)C3(C(F)(F)F)CCCC3)C[C@H]2CC)c(C(=O)NC[C@H]2CCN2C)n1 [Compound 1-330, 2′-ethoxy-5-[(2R)-2-ethyl-4-[1-(trifluoromethyl)cyclopentanecarbonyl]piperazin-1-yl]-N-{[(2R)-1-methylazetidin-2-yl]methyl}-[2,3′-bipyridine]-6-carboxamide] | < 0.01 µM
CCOc1ncccc1-c1ccc(N2CCN(C(=O)C3(C(F)(F)F)CCCC3)C[C@H]2CC)c(C(=O)NC[C@@H]2CCN2C)n1 [Compound 1-331, 2′-ethoxy-5-[(2R)-2-ethyl-4-[1-(trifluoromethyl)cyclopentanecarbonyl]piperazin-1-yl]-N-{[(2S)-1-methylazetidin-2-yl]methyl}-[2,3′-bipyridine]-6-carboxamide] | < 0.01 µM
CCOc1ncccc1-c1ccc(N2CCN(C(=O)C3(C(F)(F)F)CCCC3)C[C@H]2CC)c(C(=O)NC[C@@H]2CCCN2C)n1 [Compound 1-332, 2′-ethoxy-5-[(2R)-2-ethyl-4-[1-(trifluoromethyl)cyclopentanecarbonyl]piperazin-1-yl]-N-{[(2S)-1-methylpyrrolidin-2-yl]methyl}-[2,3′-bipyridine]-6-carboxamide] | < 0.01 µM
CCOc1ncccc1-c1ccc(N2CCN(C(=O)C3(C(F)(F)F)CCCC3)C[C@H]2CC)c(C(=O)NC[C@H]2CCCN2C)n1 [Compound 1-333, 2′-ethoxy-5-[(2R)-2-ethyl-4-[1-(trifluoromethyl)cyclopentanecarbonyl]piperazin-1-yl]-N-{[(2R)-1-methylpyrrolidin-2-yl]methyl}-[2,3′-bipyridine]-6-carboxamide] | < 0.01 µM
CCOc1ncccc1-c1ccc(N2CCN(C(=O)C3(C(F)(F)F)CCCC3)C[C@H]2CC)c(C(=O)NCC2(OC)CN(C)C2)n1 [Compound 1-334, 2′-ethoxy-5-[(2R)-2-ethyl-4-[1-(trifluoromethyl)cyclopentanecarbonyl]piperazin-1-yl]-N-[(3-methoxy-1-methylazetidin-3-yl)methyl]-[2,3′-bipyridine]-6-carboxamide] | < 0.01 µM
CCOc1ccccc1-c1ccc(N2CCN(C(=O)[C@H]3CC[C@@H](C(F)(F)F)CC3)C[C@H]2CC)c(C(=O)N[C@@H]2CCNC2)n1 [Compound 1-335, 6-(2-ethoxyphenyl)-3-[(2R)-2-ethyl-4-[cis-4-(trifluoromethyl)cyclohexanecarbonyl]piperazin-1-yl]-N-[(3R)-pyrrolidin-3-yl]pyridine-2-carboxamide] | < 0.01 µM
CCOc1ccccc1-c1ccc(N2CCN(C(=O)[C@H]3CC[C@@H](C(F)(F)F)CC3)C[C@H]2CC)c(C(=O)N[C@@H]2CCN(C)C2)n1 [Compound 1-336, 6-(2-ethoxyphenyl)-3-[(2R)-2-ethyl-4-[cis-4-(trifluoromethyl)cyclohexanecarbonyl]piperazin-1-yl]-N-[(3R)-1-methylpyrrolidin-3-yl]pyridine-2-carboxamide] | < 0.01 µM
CCOc1ncccc1-c1ccc(N2CCN(C(=O)C3(C(F)(F)F)CCCC3)C[C@H]2CC)c(C(=O)NCCN2CCC2)n1 [Compound 1-337, N-[2-(azetidin-1-yl)ethyl]-2′-ethoxy-5-[(2R)-2-ethyl-4-[1-(trifluoromethyl)cyclopentanecarbonyl]piperazin-1-yl]-[2,3′-bipyridine]-6-carboxamide] | < 0.01 µM
CCOc1ccccc1-c1ccc(N2CCN(C(=O)OC3(C(F)(F)F)CCC3)C[C@H]2CC)c(C(=O)N[C@@H]2CCNC2)n1 [Compound 1-338, 1-(trifluoromethyl)cyclobutyl (3R)-4-[6-(2-ethoxyphenyl)-2-{[(3R)-pyrrolidin-3-yl]carbamoyl}pyridin-3-yl]-3-ethylpiperazine-1-carboxylate] | < 0.01 µM
CCOc1ncccc1-c1ccc(N2CCN(C(=O)C3(C(F)(F)F)CC4CCC3C4)C[C@H]2CC)c(C(=O)NCC2CN(C)C2)n1 (stereo partly drawn) [Compound 1-339, 2′-ethoxy-5-[(2R)-2-ethyl-4-[2-(trifluoromethyl)bicyclo[2.2.1]heptane-2-carbonyl]piperazin-1-yl]-N-[(1-methylazetidin-3-yl)methyl]-[2,3′-bipyridine]-6-carboxamide] | < 0.01 µM
CCOc1ccccc1-c1ccc(N2CCN(C(=O)C3(C(F)(F)F)CCCC3)C[C@H]2CC)c(C(=O)NCC2CN(C)C2)n1 [Compound 1-340, 6-(2-ethoxyphenyl)-3-[(2R)-2-ethyl-4-[1-(trifluoromethyl)cyclopentanecarbonyl]piperazin-1-yl]-N-[(1-methylazetidin-3-yl)methyl]pyridine-2-carboxamide] | < 0.01 µM
CCOc1ccccc1-c1ccc(N2CCN(C(=O)C3(C(F)(F)F)CCCC3)C[C@H]2CC)c(C(=O)N[C@@H]2CCN(C)C2)n1 [Compound 1-341, 6-(2-ethoxyphenyl)-3-[(2R)-2-ethyl-4-[1-(trifluoromethyl)cyclopentanecarbonyl]piperazin-1-yl]-N-[(3R)-1-methylpyrrolidin-3-yl]pyridine-2-carboxamide] | < 0.01 µM
CCOc1ccccc1-c1ccc(N2CCN(C(=O)N3CCC[C@H]3C(F)(F)F)C[C@H]2CC)c(C(=O)N[C@@H]2CCNC2)n1 [Compound 1-342, 6-(2-ethoxyphenyl)-3-[(2R)-2-ethyl-4-[(2S)-2-(trifluoromethyl)pyrrolidine-1-carbonyl]piperazin-1-yl]-N-[(3R)-pyrrolidin-3-yl]pyridine-2-carboxamide] | < 0.01 µM

Source: patent publication US10981894B2, “Melanocortin subtype-2 receptor (MC2R) antagonists and uses thereof” (Crinetics Pharmaceuticals, Inc., priority 2018, dated 2021)
